Where two headings read alike, the source gives them in different places.
Experiments:
[1] = tested on: influenza virus (PR/8 (H1N1)); test: microbe, parasite or virus in culture; assay type: cell-based; settings: unidentified influenza virus, MDCK; for inhibition at 0.00625 µg/mL: read-out: Inhibition rate, single use, 0.00625 μg/mL; for inhibition at 0.0125 µg/mL: read-out: Inhibition rate, single use, 0.0125 μg/mL; for inhibition at 0.025 µg/mL: read-out: Inhibition rate, single use, 0.025 μg/mL; for inhibition at 0.05 µg/mL: read-out: Inhibition rate, single use, 0.05 μg/mL; for inhibition at 0.1 µg/mL: read-out: Inhibition rate, single use, 0.1 μg/mL; for inhibition at 0.2 µg/mL: read-out: Inhibition rate, single use, 0.2 μg/mL; for inhibition at 0.4 µg/mL: read-out: Inhibition rate, single use, 0.4 μg/mL; for inhibition at 0.0625 µg/mL: read-out: Inhibition rate, single use, 0.0625 μg/mL; for inhibition at 0.125 µg/mL: read-out: Inhibition rate, single use, 0.125 μg/mL; for inhibition at 0.25 µg/mL: read-out: Inhibition rate, single use, 0.25 μg/mL; for inhibition at 0.5 µg/mL: read-out: Inhibition rate, single use, 0.5 μg/mL; for inhibition at 1 µg/mL: read-out: Inhibition rate, single use, 1 μg/mL; for inhibition at 2 µg/mL: read-out: Inhibition rate, single use, 2 μg/mL
[2] = tested on: Victoria/3/75 (H3N2) influenza virus; test: microbe, parasite or virus in culture; assay type: cell-based; settings: Influenza A virus, H3N2, MDCK, single use, read-out: Inhibition rate; for inhibition at 0.0125 µg/mL: 0.0125 μg/mL; for inhibition at 0.025 µg/mL: 0.025 μg/mL; for inhibition at 0.05 µg/mL: 0.05 μg/mL; for inhibition at 0.1 µg/mL: 0.1 μg/mL; for inhibition at 0.2 µg/mL: 0.2 μg/mL; for inhibition at 0.125 µg/mL: 0.125 μg/mL; for inhibition at 0.25 µg/mL: 0.25 μg/mL; for inhibition at 0.5 µg/mL: 0.5 μg/mL; for inhibition at 1 µg/mL: 1 μg/mL; for inhibition at 2 µg/mL: 2 μg/mL; for inhibition at 4 µg/mL: 4 μg/mL

Q: How did the inhibition at 0.00313 µg/mL ([1]; read-out: Inhibition rate, single use, 0.00313 μg/mL, Test Example 1) turn out when `CCC(CC)O[C@@H]1C=C(C(=O)O)C[C@H](N)[C@H]1NC(C)=O` [GS-4071] was run?
A: Its inhibition at 0.00313 µg/mL is 1.9%.

Q: What about the inhibition at 0.00625 µg/mL ([1]; Test Example 1) of the same molecule?
A: The inhibition at 0.00625 µg/mL was 11%.

Q: What about the inhibition at 0.0125 µg/mL ([1]; Test Example 1) of the same molecule?
A: The inhibition at 0.0125 µg/mL was 14%.

Q: What about the inhibition at 0.025 µg/mL ([1]; Test Example 1) of the same molecule?
A: The inhibition at 0.025 µg/mL was 25%.

Q: And the inhibition at 0.05 µg/mL ([1]; Test Example 1)?
A: The inhibition at 0.05 µg/mL was 29%.

Q: And the inhibition at 0.1 µg/mL ([1]; Test Example 1)?
A: The inhibition at 0.1 µg/mL was 42%.

Q: What about the inhibition at 0.2 µg/mL ([1]; Test Example 1) of the same molecule?
A: The inhibition at 0.2 µg/mL was 61%.

Q: What about the inhibition at 0.4 µg/mL ([1]; Test Example 1) of the same molecule?
A: The inhibition at 0.4 µg/mL was 73%.

Q: And the inhibition at 0.8 µg/mL ([1]; read-out: Inhibition rate, single use, 0.8 μg/mL, Test Example 1)?
A: Its inhibition at 0.8 µg/mL is 84%.

Q: And the inhibition at 0.003125 µg/mL ([2]; 0.003125 μg/mL, Test Example 3)?
A: The inhibition at 0.003125 µg/mL was 8.6%.

Q: What about the inhibition at 0.00625 µg/mL ([2]; 0.00625 μg/mL, Test Example 3) of the same molecule?
A: The inhibition at 0.00625 µg/mL was 14%.

Q: And the inhibition at 0.0125 µg/mL ([2]; Test Example 3)?
A: The inhibition at 0.0125 µg/mL was 44%.

Q: And the inhibition at 0.025 µg/mL ([2]; Test Example 3)?
A: Its inhibition at 0.025 µg/mL is 54%.

Q: And the inhibition at 0.05 µg/mL ([2]; Test Example 3)?
A: Its inhibition at 0.05 µg/mL is 68%.

Q: And the inhibition at 0.1 µg/mL ([2]; Test Example 3)?
A: Its inhibition at 0.1 µg/mL is 80%.

Q: What about the inhibition at 0.2 µg/mL ([2]; Test Example 3) of the same molecule?
A: The inhibition at 0.2 µg/mL was 88%.

Q: With `NC(=O)c1nc(F)cnc1O` [T-705, 6-Fluoro-3-hydroxy-2-pyrazinecarboxamide] as the molecule, how does the inhibition at 0.0156 µg/mL ([1]; read-out: Inhibition rate, single use, 0.0156 μg/mL, Test Example 1) read?
A: Its inhibition at 0.0156 µg/mL is 1.9%.

Q: What about the inhibition at 0.0313 µg/mL ([1]; read-out: Inhibition rate, single use, 0.0313 μg/mL, Test Example 1) of the same molecule?
A: Its inhibition at 0.0313 µg/mL is 6.7%.

Q: And the inhibition at 0.0625 µg/mL ([1]; Test Example 1)?
A: Its inhibition at 0.0625 µg/mL is 9.7%.

Q: What about the inhibition at 0.0625 µg/mL ([1]; Test Example 2) of the same molecule?
A: The inhibition at 0.0625 µg/mL was 6.2%.

Q: What about the inhibition at 0.125 µg/mL ([1]; Test Example 1) of the same molecule?
A: Its inhibition at 0.125 µg/mL is 27%.

Q: What about the inhibition at 0.125 µg/mL ([1]; Test Example 2) of the same molecule?
A: Its inhibition at 0.125 µg/mL is 17%.

Q: And the inhibition at 0.25 µg/mL ([1]; Test Example 1)?
A: Its inhibition at 0.25 µg/mL is 43%.

Q: And the inhibition at 0.25 µg/mL ([1]; Test Example 2)?
A: Its inhibition at 0.25 µg/mL is 34%.

Q: And the inhibition at 0.5 µg/mL ([1]; Test Example 1)?
A: Its inhibition at 0.5 µg/mL is 60%.

Q: What about the inhibition at 0.5 µg/mL ([1]; Test Example 2) of the same molecule?
A: The inhibition at 0.5 µg/mL was 64%.

Q: What about the inhibition at 1 µg/mL ([1]; Test Example 1) of the same molecule?
A: The inhibition at 1 µg/mL was 85%.

Q: And the inhibition at 1 µg/mL ([1]; Test Example 2)?
A: Its inhibition at 1 µg/mL is 77%.

Q: And the inhibition at 2 µg/mL ([1]; Test Example 1)?
A: Its inhibition at 2 µg/mL is 93%.

Q: What about the inhibition at 2 µg/mL ([1]; Test Example 2) of the same molecule?
A: The inhibition at 2 µg/mL was 89%.

Q: What about the inhibition at 4 µg/mL ([1]; read-out: Inhibition rate, single use, 4 μg/mL, Test Example 1) of the same molecule?
A: Its inhibition at 4 µg/mL is 100%.

Q: What about the inhibition at 0.125 µg/mL ([2]; Test Example 3) of the same molecule?
A: The inhibition at 0.125 µg/mL was 2.6%.

Q: What about the inhibition at 0.125 µg/mL ([2]; Test Example 4) of the same molecule?
A: Its inhibition at 0.125 µg/mL is 2.6%.

Q: What about the inhibition at 0.25 µg/mL ([2]; Test Example 3) of the same molecule?
A: The inhibition at 0.25 µg/mL was 9%.

Q: What about the inhibition at 0.25 µg/mL ([2]; Test Example 4) of the same molecule?
A: Its inhibition at 0.25 µg/mL is 9.2%.

Q: What about the inhibition at 0.5 µg/mL ([2]; Test Example 3) of the same molecule?
A: Its inhibition at 0.5 µg/mL is 42%.

Q: What about the inhibition at 0.5 µg/mL ([2]; Test Example 4) of the same molecule?
A: The inhibition at 0.5 µg/mL was 42%.

Q: And the inhibition at 1 µg/mL ([2]; Test Example 3)?
A: Its inhibition at 1 µg/mL is 76%.

Q: And the inhibition at 1 µg/mL ([2]; Test Example 4)?
A: The inhibition at 1 µg/mL was 76%.

Q: What about the inhibition at 2 µg/mL ([2]; Test Example 3) of the same molecule?
A: Its inhibition at 2 µg/mL is 86%.

Q: What about the inhibition at 2 µg/mL ([2]; Test Example 4) of the same molecule?
A: The inhibition at 2 µg/mL was 86%.

Q: What about the inhibition at 4 µg/mL ([2]; Test Example 3) of the same molecule?
A: Its inhibition at 4 µg/mL is 94%.

Q: And the inhibition at 4 µg/mL ([2]; Test Example 4)?
A: The inhibition at 4 µg/mL was 94%.

Q: For `CC(=O)N[C@H]1[C@H]([C@H](O)[C@H](O)CO)OC(C(=O)O)=C[C@@H]1N=C(N)N` [Zanamivir, zanamivir], which inhibition at 0.0031 µg/mL ([1]; read-out: Inhibition rate, single use, 0.0031 μg/mL, Test Example 2) is on record?
A: Its inhibition at 0.0031 µg/mL is 6.2%.

Q: What about the inhibition at 0.00625 µg/mL ([1]; Test Example 2) of the same molecule?
A: Its inhibition at 0.00625 µg/mL is 12%.

Q: And the inhibition at 0.0125 µg/mL ([1]; Test Example 2)?
A: Its inhibition at 0.0125 µg/mL is 23%.

Q: What about the inhibition at 0.025 µg/mL ([1]; Test Example 2) of the same molecule?
A: Its inhibition at 0.025 µg/mL is 28%.

Q: What about the inhibition at 0.05 µg/mL ([1]; Test Example 2) of the same molecule?
A: The inhibition at 0.05 µg/mL was 49%.

Q: What about the inhibition at 0.1 µg/mL ([1]; Test Example 2) of the same molecule?
A: The inhibition at 0.1 µg/mL was 60%.

Q: And the inhibition at 0.2 µg/mL ([1]; Test Example 2)?
A: The inhibition at 0.2 µg/mL was 67%.

Q: And the inhibition at 0.4 µg/mL ([1]; Test Example 2)?
A: The inhibition at 0.4 µg/mL was 75%.

Q: What about the inhibition at 0.0125 µg/mL ([2]; Test Example 4) of the same molecule?
A: Its inhibition at 0.0125 µg/mL is 7.4%.

Q: And the inhibition at 0.025 µg/mL ([2]; Test Example 4)?
A: Its inhibition at 0.025 µg/mL is 14%.

Q: And the inhibition at 0.05 µg/mL ([2]; Test Example 4)?
A: The inhibition at 0.05 µg/mL was 27%.

Q: And the inhibition at 0.1 µg/mL ([2]; Test Example 4)?
A: The inhibition at 0.1 µg/mL was 40%.

Q: And the inhibition at 0.2 µg/mL ([2]; Test Example 4)?
A: Its inhibition at 0.2 µg/mL is 60%.

Q: And the inhibition at 0.4 µg/mL ([2]; 0.4 μg/mL, Test Example 4)?
A: The inhibition at 0.4 µg/mL was 71%.

Q: What about the inhibition at 0.8 µg/mL ([2]; 0.8 μg/mL, Test Example 4) of the same molecule?
A: The inhibition at 0.8 µg/mL was 81%.

Source: patent US8759354B2, “Pharmaceutical composition comprising pyrazine derivative, and method of using pyrazine derivative in combination” (priority 2007, dated 2014)
